Measurements as given in ChEMBL document CHEMBL1140181, “Tyrianthinic acids from Ipomoea tyrianthina and their antimycobacterial activity, cytotoxicity, and effects on the central nervous system” (2008).
In brackets after ≈: the same amount, converted by molar mass. Activity calls are given as the source filed them. The rule behind the calls is not given here.

What was measured:
[1] = test system: Mus musculus; assay: Anticonvulsant activity in mouse assessed as protection of pentylenetetrazole-induced seizure at 40 mg/kg, ip; format: functional; details: route intraperitoneal
[2] = test system: Mus musculus; assay: Anticonvulsant activity in mouse assessed as effect on pentobarbital-induced increase in hypnosis latency at 10 mg/kg, ip; format: functional, organism-based; parameters: dose 10 mg/kg
[3] = test system: KB; assay: Cytotoxicity against human KB cells; format: functional; details: read-out: ED50 (the source's name)
[4] = species: Mus musculus; assay: Increase in GABA level in mouse brain at 4 ug/mL after 90 seconds; format: functional, organism-based
[5] = test system: Mycobacterium tuberculosis; assay: Antimicrobial activity against Mycobacterium tuberculosis H37Rv ATTC 27294 by alamar blue assay; format: functional
[6] = test system: OVCAR-5; assay: Cytotoxicity against human OVCAR5 cells; format: functional; details: read-out: ED50 (the source's name)
[7] = Cytotoxicity against human UISO-SQC-1 cells; format: functional; details: UISO-SQC1, read-out: ED50 (the source's name)
[8] = test system: HCT-15; assay: Cytotoxicity against human HCT15 cells; format: functional; details: read-out: ED50 (the source's name)

Structure (SMILES) | Activity [1] [%] | Activity [2] | EC50 [3] [µg/mL] | Activity [4] | MIC [5] [µg/mL] | EC50 [6] [µg/mL] | EC50 [7] [µg/mL] | EC50 [8] [µg/mL]
C/C=C(\C)C(=O)O[C@H]1[C@@H]2O[C@H]3[C@H](O[C@H]4[C@H](OC(CCCCC)CCCCCCCCCC(=O)O[C@@H]1[C@H](O[C@H]1O[C@H](C)[C@H](O)[C@@H](O)[C@H]1O)[C@@H](C)O2)O[C@H](C)[C@H](O)[C@H]4O)O[C@H](CO)[C@H](O)[C@H]3O (stereo not given in full) [TYRIANTHIN 8] | 70 | Active | 2.2 (≈ 2.35 µM) | Active | 25 (≈ 26.7 µM) | > 5 | > 5 | > 5
CCCCC[C@H](CCCCCCCCCC(=O)O)O[C@@H]1O[C@H](C)[C@@H](O)[C@H](O)[C@H]1O[C@@H]1O[C@H](CO)[C@@H](O)[C@H](O)[C@H]1O[C@@H]1O[C@@H](C)[C@H](O[C@@H]2O[C@H](C)[C@@H](OC(=O)C(C)C(C)O)[C@H](O)[C@H]2O)[C@@H](O)[C@H]1OC(=O)C(C)CC (stereo not given in full) [THYRIANTHINIC ACID I] | 70 | Active | 2.6 (≈ 2.46 µM) |  | 25 (≈ 23.6 µM) | > 5 | > 5 | > 5
CCCCCC1CCCCCCCCCC(=O)O[C@H]2[C@@H](OC(=O)CC)[C@H](O[C@H]3[C@H](O[C@H]4[C@H](O1)O[C@H](C)[C@H](O)[C@H]4O)O[C@H](CO)[C@H](O)[C@H]3O)O[C@H](C)[C@H]2O[C@H]1O[C@H](C)[C@H](O)[C@@H](O)[C@H]1O (stereo not given in full) [TYRIANTHIN 9] | 70 | Active | 2.5 (≈ 2.74 µM) | Active | 25 (≈ 27.4 µM) | > 5 | > 5 | > 5
C/C=C(\C)C(=O)O[C@H]1[C@H](O)[C@@H](O)[C@H](O[C@@H]2[C@@H](O)[C@@H](OC(=O)C(C)CC)[C@H](O[C@H]3[C@H](O[C@H]4[C@H](O[C@H](CCCCC)CCCCCCCCCC(=O)O)O[C@H](C)[C@@H](O)[C@@H]4O)O[C@H](CO)[C@@H](O)[C@@H]3O)O[C@H]2C)O[C@@H]1C (stereo not given in full) [THYRIANTHINIC ACID II] | 70 | Active | 2.8 (≈ 2.69 µM) |  | 25 (≈ 24.1 µM) | > 5 | > 5 | > 5
